In US11046699B2, “Pyrazolo-pyrimidin-amino-cycloalkyl compounds and their therapeutic uses” (RAPT THERAPEUTICS, INC., priority 2018, dated 2021):
Read-outs that look alike come from different tables or passages of the source.

Molecular target: GCN2 (Homo sapiens, UniProt Q9P2K8)
Test: GCN2 enzymatic endpoint assay: phosphorylation of GFP-eIF2α measured by TR-FRET (Lanthascreen)
Type: biochemical
Method in brief: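 2 μM ATP, 80 nM GFP-eIF2α, RT, 90 min; EDTA stop. Tb-anti-phospho antibody TR-FRET read, 520/495 nm ratio.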

[1] = tested as described in Example 77, compound and/or hydrochloride, dihydrochloride or trifluoroacetic acid salt, read-out: IC 50 Activity
[2] = GCN2 biochemical IC50, 4 nM GCN2, 2 μM ATP, 80 nM GFP-eIF2α, 90 min RT, read-out: GCN2 activity

Chain of GCN2 (Q9P2K8 whole entry): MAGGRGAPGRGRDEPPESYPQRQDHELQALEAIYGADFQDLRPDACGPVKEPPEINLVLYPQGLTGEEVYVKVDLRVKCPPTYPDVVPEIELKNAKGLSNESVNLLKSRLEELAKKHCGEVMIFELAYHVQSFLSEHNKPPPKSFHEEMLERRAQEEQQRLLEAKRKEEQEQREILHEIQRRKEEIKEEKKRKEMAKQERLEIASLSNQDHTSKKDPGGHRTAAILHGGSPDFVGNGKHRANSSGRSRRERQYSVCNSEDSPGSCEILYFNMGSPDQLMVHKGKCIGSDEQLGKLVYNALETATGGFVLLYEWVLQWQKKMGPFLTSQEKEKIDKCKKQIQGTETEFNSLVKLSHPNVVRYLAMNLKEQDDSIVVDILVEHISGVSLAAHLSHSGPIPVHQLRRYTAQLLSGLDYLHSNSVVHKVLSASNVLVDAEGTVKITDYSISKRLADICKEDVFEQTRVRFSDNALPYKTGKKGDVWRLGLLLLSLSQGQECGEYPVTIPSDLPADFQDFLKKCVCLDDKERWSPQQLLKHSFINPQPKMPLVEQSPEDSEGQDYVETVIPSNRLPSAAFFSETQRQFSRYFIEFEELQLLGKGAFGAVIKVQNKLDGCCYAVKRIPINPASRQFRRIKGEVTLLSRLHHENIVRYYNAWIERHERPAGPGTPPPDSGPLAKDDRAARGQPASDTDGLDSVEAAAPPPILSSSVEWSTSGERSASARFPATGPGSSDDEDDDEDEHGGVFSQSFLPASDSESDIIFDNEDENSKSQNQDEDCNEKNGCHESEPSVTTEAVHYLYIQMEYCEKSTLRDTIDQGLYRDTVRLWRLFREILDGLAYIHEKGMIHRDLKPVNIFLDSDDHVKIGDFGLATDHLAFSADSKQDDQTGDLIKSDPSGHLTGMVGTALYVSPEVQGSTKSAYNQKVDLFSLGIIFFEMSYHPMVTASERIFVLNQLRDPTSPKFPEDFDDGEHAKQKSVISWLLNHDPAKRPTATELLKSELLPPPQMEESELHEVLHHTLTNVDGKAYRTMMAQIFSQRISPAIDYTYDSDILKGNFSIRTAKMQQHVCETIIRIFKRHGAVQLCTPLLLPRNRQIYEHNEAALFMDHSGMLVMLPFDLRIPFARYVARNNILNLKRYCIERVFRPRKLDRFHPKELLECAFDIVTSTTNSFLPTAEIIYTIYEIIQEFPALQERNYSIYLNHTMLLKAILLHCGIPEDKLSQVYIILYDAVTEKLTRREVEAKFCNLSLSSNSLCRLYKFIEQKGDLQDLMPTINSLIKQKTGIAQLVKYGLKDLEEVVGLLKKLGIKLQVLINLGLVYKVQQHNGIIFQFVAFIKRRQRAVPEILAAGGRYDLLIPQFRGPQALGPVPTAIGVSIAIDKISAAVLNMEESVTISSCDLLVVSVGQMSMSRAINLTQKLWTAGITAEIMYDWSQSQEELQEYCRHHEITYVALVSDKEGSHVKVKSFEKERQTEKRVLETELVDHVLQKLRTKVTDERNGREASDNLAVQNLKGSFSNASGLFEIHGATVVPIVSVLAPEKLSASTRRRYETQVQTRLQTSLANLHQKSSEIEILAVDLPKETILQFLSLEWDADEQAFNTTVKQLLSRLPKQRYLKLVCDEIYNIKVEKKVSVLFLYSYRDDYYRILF

Row | Compound | IC50 [1] [nM] | IC50 [2] [nM]
1 | CNC(=O)[C@]1(C)CC[C@@H](Nc2ncc3c(Br)nn(-c4cc(CO)c5ncccc5c4)c3n2)C1 [(1R,3R)-3-[[3-bromo-1-[8-(hydroxy-methyl)-6-quinolyl]pyrazolo[3,4-d]pyrimidin-6-yl]amino]-N,1-dimethyl-cyclopentanecarboxamide] | < 25 | 
2 | O=C(O)C1CN(C(=O)[C@@H]2CC[C@@H](Nc3ncc4c(Br)nn(-c5ccc6ncccc6c5)c4n3)C2)CCN1 (mixture of isomers) | < 25 | 
3 | CCN(CC)C(=O)C1(C)CC[C@@H](Nc2ncc3c(Br)nn(-c4cc(F)c5ncccc5c4)c3n2)C1 (stereo partly drawn) [(3R)-3-[[3-bromo-1-(8-fluoro-6-quinolyl)pyrazolo[3,4-d]pyrimidin-6-yl]amino]-N,N-diethyl-1-methyl-cyclopentanecarboxamide] | 25 to 200 | 
4 | CNC(=O)[C@]1(C)CC[C@@H](Nc2ncc3c(Br)nn(-c4cc(CCCO)c5c(c4)CCC(=O)N5C)c3n2)C1 | < 25 | 
5 | COCCNC(=O)[C@@H]1CC[C@@H](Nc2ncc3c(Br)nn(-c4cncc(OC)c4)c3n2)C1 [(1R,3R)-3-((3-bromo-1-(5-methoxypyridin-3-yl)-1H-pyrazolo[3,4-d]pyrimidin-6-yl)amino)-N-(2-methoxyethyl)cyclopentane-1-carboxamide] | 500 to 1000 | 
6 | Cn1cnc2ccc(-n3nc(Br)c4cnc(N[C@@H]5CC[C@@](C)(O)C5)nc43)cc2c1=O [Example 70, 6-(3-bromo-6-(((1R,3R)-3-hydroxy-3-methylcyclopentyl)amino)-1H-pyrazolo[3,4-d]pyrimidin-1-yl)-3-methylquinazolin-4(3H)-one] |  | < 25
7 | CNC(=O)[C@]1(C)CC[C@@H](Nc2ncc3c(Br)nn(-c4cc(CO)cc([N+](=O)[O-])c4)c3n2)C1 [(1R,3R)-3-[[3-bromo-1-[3-(hydroxy-methyl)-5-nitro-phenyl]pyrazolo [3,4-d]pyrimidin-6-yl]amino]-N,1-dimethyl-cyclopentanecarboxamide] | 25 to 200 | 
8 | N#Cc1cc(-n2nc(Br)c3cnc(N[C@@H]4CC[C@@H](C(=O)NCC5CC5)C4)nc32)cc2cccnc12 [(1R,3R)-3-((3-bromo-1-(8-cyanoquinolin-6-yl)-1H-pyrazolo[3,4-d]pyrimidin-6-yl)amino)-N-(cyclopropylmethyl)cyclo-pentane-1-carboxamide] | 25 to 200 | 
9 | CNC(=O)[C@]1(C)CC[C@@H](Nc2ncc3c(Br)nn(-c4ccc5c(c4)CN(S(=O)(=O)C4COC4)C5)c3n2)C1 [(1R,3R)-3-[[3-bromo-1-[2-(oxetan-3-ylsulfonyl)isoindolin-5-yl]pyrazolo[3,4-d]pyrimidin-6-yl]amino]-N,1-dimethyl-cyclopentanecarboxamide] | 25 to 200 | 
10 | COCCNS(=O)(=O)[C@@H]1CC[C@@H](Nc2ncc3c(Br)nn(-c4ccc5ncccc5c4)c3n2)C1 [(1R,3R)-3-((3-bromo-1-(quinolin-6-yl)-1H-pyrazolo[3,4-d]pyrimidin-6-yl)amino)-N-(2-methoxyethyl)cyclopentane-1-sulfonamide] | 25 to 200 | 
11 | CS(=O)(=O)CCNC(=O)C12CCC(Nc3ncc4c(Br)nn(-c5ccc6ncccc6c5)c4n3)(C1)C2 [4-((3-bromo-1-(quinolin-6-yl)-1H-pyrazolo [3,4-d]pyrimidin-6-yl)amino)-N-(2-(methyl-sulfonyl)ethyl)bicyclo[2.1.1]hexane-1-carboxamide] | 200 to 500 | 
12 | CNC(=O)[C@]1(C)CC[C@@H](Nc2ncc3c(Br)nn(-c4ccc5c(c4)COC5=O)c3n2)C1 | 25 to 200 | 
13 | Cc1nnc(-c2ccc(-n3nc(Br)c4cnc(N[C@@H]5CC[C@@H](C(=O)N6CCN(C)C(=O)C6)C5)nc43)cc2)o1 [4-((1R,3R)-3-((3-bromo-1-(4-(5-methyl-1,3,4-oxadiazol-2-yl)phenyl)-1H-pyrazolo[3,4-d]pyrimidin-6-yl)amino)cyclopentane-1-carbonyl)-1-methylpiperazin-2-one] | 25 to 200 | 
14 | CNC(=O)[C@@H]1CC[C@@H](Nc2ncc3c(Br)nn(-c4ccc(-c5cnn(CCOC)c5)cc4)c3n2)C1 [(1R,3R)-3-[[3-bromo-1-[4-[1-(2-methoxy-ethyl)pyrazol-4-yl]phenyl]pyrazolo[3,4-d]pyrimidin-6-yl]amino]-N-methyl-cyclopentanecarboxamide] | 25 to 200 | 
15 | CC1(C(=O)N2CCNCC2)CC[C@@H](Nc2ncc3c(Br)nn(-c4cc(F)c5ncccc5c4)c3n2)C1 (stereo partly drawn) [[(3R)-3-[[3-bromo-1-(8-fluoro-6-quinolyl)pyrazolo[3,4-d]pyrimidin-6-yl]amino]-1-methyl-cyclopentyl]-piperazin-1-yl-methanone] | < 25 | 
16 | CNC(=O)[C@]1(C)CC[C@@H](Nc2ncc3c(Br)nn(-c4ccc5c(c4)OCC(=O)N5)c3n2)C1 [(1R,3R)-3-[[3-bromo-1-(3-oxo-4H-1,4-benzoxazin-7-yl)pyrazolo[3,4-d]pyrimidin-6-yl]amino]-N,1-dimethyl-cyclopentanecarboxamide] | 25 to 200 | 

Row | Compound | IC50 [1] [nM] | IC50 [2] [nM]
17 | CNC(=O)[C@]1(C)CC[C@@H](Nc2ncc3c(Br)nn(-c4ccc(-c5nnc(C(C)(C)N)s5)c(C#N)c4)c3n2)C1 [(1R,3R)-3-[[1-[4-[5-(1-amino-1-methyl-ethyl)-1,3,4-thiadiazol-2-yl]-3-cyano-phenyl]-3-bromo-pyrazolo[3,4-d]pyrimidin-6-yl]amino]-N,1-dimethyl-cyclopentanecarboxamide] | 25 to 200 | 
18 | CNC(=O)[C@]1(C)CC[C@@H](Nc2ncc3c(Br)nn(-c4cc(N5CCNCC5=O)c5ncccc5c4)c3n2)C1 [(1R,3R)-3-[[3-bromo-1-[8-(2-oxopiperazin-1-yl)-6-quinolyl]pyrazolo[3,4-d]pyrimidin-6-yl]amino]-N,1-dimethyl-cyclopentane-carboxamide] | 25 to 200 | 
19 | CN(C)C(=O)[C@]1(C)CC[C@@H](Nc2ncc3c(Br)nn(-c4cc(CCN)c5ncccc5c4)c3n2)C1 [Example 30, (1R,3R)-3-((1-(8-(2-aminoethyl)quinolin-6-yl)-3-bromo-1H-pyrazolo[3,4-d]pyrimidin-6-yl)amino)-N,N,1-trimethylcyclopentane-1-carboxamide; 2,2,2-trifluoroacetic acid] |  | < 25
20 | CNC(=O)[C@]1(CC(F)(F)F)CC[C@@H](Nc2ncc3c(Br)nn(-c4cc(F)c5ncccc5c4)c3n2)C1 [(1R,3R)-3-[[3-bromo-1-(8-fluoro-6-quinolyl)pyrazolo[3,4-d]pyrimidin-6-yl]amino]-N-methyl-1-(2,2,2-trifluoroethyl)cyclopentane-carboxamide] | < 25 | 
21 | CNC(=O)[C@]1(C)CC[C@@H](Nc2ncc3c(Br)nn(-c4ccc5c(c4)CCN(C(=O)C4CN(C)C4)C5)c3n2)C1 [(1R,3R)-3-[[3-bromo-1-[2-(1-methylazetidine-3-carbonyl)-3,4-dihydro-1H-isoquinolin-6-yl]pyrazolo[3,4-d]pyrimidin-6-yl]amino]-N,1-dimethyl-cyclopentanecarboxamide] | 25 to 200 | 
22 | CNC(=O)[C@@]1(COC)CC[C@@H](Nc2ncc3c(I)nn(-c4cc(F)c5ncccc5c4)c3n2)C1 [(1S,3R)-3-[[1-(8-fluoro-6-quinolyl)-3-iodo-pyrazolo[3,4-d]pyrimidin-6-yl]amino]-1-(methoxymethyl)-N-methyl-cyclopentane-carboxamide] | 25 to 200 | 
23 | O=C(NCCO)[C@@H]1CC[C@@H](Nc2ncc3c(Br)nn(-c4ccc5ncccc5c4)c3n2)C1 [(1R,3R)-3-((3-bromo-1-(quinolin-6-yl)-1H-pyrazolo[3,4-d]pyrimidin-6-yl)amino)-N-(2-hydroxyethyl)cyclopentane-1-carboxamide] | 25 to 200 | 
24 | CNC(=O)[C@]1(C)CC[C@@H](Nc2ncc3c(Br)nn(-c4ccc5c(c4)CCCN5)c3n2)C1 [(1R,3R)-3-[[3-bromo-1-(1,2,3,4-tetra-hydroquinolin-6-yl)pyrazolo[3,4-d]pyrimidin-6-yl]amino]-N,1-dimethyl-cyclopentanecarboxamide] | 25 to 200 | 
25 | CNC(=O)[C@]1(C)CCC(Nc2ncc3c(Br)nn(-c4ccc5c(c4)NC(=O)CC5)c3n2)C1 (stereo partly drawn) [(1R)-3-[[3-bromo-1-(2-oxo-3,4-dihydro-1H-quinolin-7-yl)pyrazolo[3,4-d]pyrimidin-6-yl]amino]-N,1-dimethyl-cyclopentane-carboxamide] | 25 to 200 | 
26 | CNC(=O)[C@]1(C)CC[C@@H](Nc2ncc3c(Br)nn(-c4ccc(-c5ncco5)c(NC(=O)C5CNC5)c4)c3n2)C1 [N-[5-[3-bromo-6-[[(1R,3R)-3-methyl-3-(methylcarbamoyl)cyclopentyl]amino]pyrazolo[3,4-d]pyrimidin-1-yl]-2-oxazol-2-yl-phenyl]azetidine-3-carboxamide] | < 25 | 
27 | O=C(NCc1nnn[nH]1)[C@@H]1CC[C@@H](Nc2ncc3c(Br)nn(-c4cc(F)c5ncccc5c4)c3n2)C1 [(1R,3R)-N-((1H-tetrazol-5-yl)methyl)-3-((3-bromo-1-(8-fluoroquinolin-6-yl)-1H-pyrazolo [3,4-d]pyrimidin-6-yl)amino)cyclopentane-1-carboxamide] | 25 to 200 | 
28 | Cc1nnc(-c2ccc(-n3nc(Br)c4cnc(N[C@@H]5CC[C@@](C)(O)C5)nc43)cc2)s1 [Example 74, (1R,3R)-3-((3-bromo-1-(4-(5-methyl-1,3,4-thiadiazol-2-yl)phenyl)-1H-pyrazolo[3,4-d]pyrimidin-6-yl)amino)-1-methylcyclopentan-1-ol] |  | 25 to 200
29 | O=C([C@@H]1CC[C@@H](Nc2ncc3c(Br)nn(-c4ccc5ncccc5c4)c3n2)C1)N1CCN[C@@H](CCO)C1 [((1R,3R)-3-((3-bromo-1-(quinolin-6-yl)-1H-pyrazolo[3,4-d]pyrimidin-6-yl)amino)cyclo-pentyl)((S)-3-(2-hydroxyethyl)piperazin-1-yl) methanone] | 25 to 200 | 
30 | CNC(=O)C1(C)CC[C@@H](Nc2ncc3c(Br)nn(-c4ccc(-c5nc(C)no5)cc4)c3n2)C1 (stereo partly drawn) [(3R)-3-[[3-bromo-1-[4-(3-methyl-1,2,4-oxadiazol-5-yl)phenyl]pyrazolo[3,4-d]pyrimidin-6-yl]amino]-N,1-dimethyl-cyclopentanecarboxamide] | 25 to 200 | 
31 | CN(C)S(=O)(=O)[C@@H]1CC[C@@H](Nc2ncc3c(Br)nn(-c4ccc5ncccc5c4)c3n2)C1 [(1R,3R)-3-((3-bromo-1-(quinolin-6-yl)-1H-pyrazolo[3,4-d]pyrimidin-6-yl)amino)-N,N-dimethylcyclopentane-1-sulfonamide] | 25 to 200 | 
